Results as given in patent US12655160B2, “KRAS G12D inhibitors” (Mirati Therapeutics, Inc., priority 2020, dated 2026).
Structures can show the parent of a compound that is named as a salt. Where two headings read alike, the source gives them in different places.

What was measured:
[1] = test system: KRas G12D-mediated Phosphorylation of ERK; assay: Inhibition of KRas G12D-mediated Phosphorylation of ERK in AGS cells; type: cell-based; settings: Homo sapiens
Procedure: AGS cells (ATCC CRL-1739) expressing G12D were grown in DMEM medium supplemented with 10% fetal bovine serum, 10 mM HEPES, and Penicillin/Streptomycin. Cells were plated in tissue culture treated 96 well plates at a density of 40,000 cells/well and allowed to attach for 12-14 hours. Diluted compounds were then added in a final concentration of 0.5% DMSO. After 3 hours, the medium was removed, 150 μl of 4.0% formaldehyde was added and the plates incubated at room temperature for 20 minutes. The plates were washed with PBS, and permeabilized with 150 μL of ice cold 100% methanol for 10 minutes. Non-specific antibody binding to the plates was blocked using 100 μL Licor blocking buffer (Li-Cor Biotechnology, Lincoln NE) for 1 hour at room temperature.
The amount of phospho-ERK was determined using an antibody specific for the phosphorylated form of ERK and compared to the amount of GAPDH. Primary antibodies used for the detection were added as follows: Phospho-ERK(Cell Signaling cs-9101) diluted 1:500 and GAPDH (Millipore MAB374) diluted 1:5000 in Licor block+0.05% Tween 20. The plates were incubated for 2 hours at room temperature. The plates were washed with PBS+0.05% Tween 20.
Secondary antibodies used to visualize primary antibodies were added as follows: Anti-rabbit-680 diluted 1:1000 and Anti-mouse-800 diluted 1:1000 both in Licor block+0.05% Tween20, and were incubated for 1 hour at room temperature. The plates were washed with PBS+0.05% Tween 20. A 100 μl aliquot of PBS was added to each well and the plates were read on a Li-Cor Odyssey CLX plate reader.
The phospho-ERK(Thr202/Tyr204 signal was normalized to the GAPDH signal for each well and percent of DMSO control values were calculated. IC50 values were generated using a 4-parameter fit of the dose response curve

KRas G12D [2] = target: T1, KRas G12D (Homo sapiens, UniProt P01116, G12D); assay: KRas G12D Surface Plasmon Resonance (SPR) Binding Assay; design: Avidin-tag (so in the source); settings: Biacore T200, Biotinylated Avidin-tagged KRAS protein on SA chip, 20 C, 1:1 binding model
Procedure: This Example illustrates that exemplary compounds of the present invention bind to KRas G12D as measured by surface plasmon resonance (SPR). Briefly, 1 L of 1.05×HBS-Mg buffer (262.5 mM BioUltra Hepes, pH 7.5, 157.5 mM NaCl, 105 mM MgCl2, 0.525 mM TCEP, 0.0305% Brij-35) was prepared and filter sterilized using a 0.22 μm bottle top filter. Approximately 50 mL of 1.05×HBS-Mg buffer was removed and saved for future dilutions. A 50 mL aliquot of DMSO (Sigma Aldrich DMSO Lot. #SHBK2079) was added and continued to stir for 10 minutes, creating the final 1.0×HBS-Mg buffer (250 mM BioUltra Hepes pH 7.5, 150 mM NaCl, 100 mM MgCl2, 0.5 mM TCEP, 0.03% Brij-35). Biacore T200 instrument was primed using 1.0×HBS-Mg buffer before docking a GE Streptavidin (SA) chip and then primed two additional times prior to beginning the immobilization step. All immobilized protein mixtures were created using 3-5 mg/mL Biotinylated Avidin-tagged KRAS protein using the following immobilization settings: SA chip type, 1 flow cells per cycle, 720 second contact time, and 5 μL/min flow rate. Normalization of the detector was also performed during the immobilization step using the GE BiaNormalize solution. All compounds were diluted to 10 mM in 100% DMSO prior to being diluted 20× in 1.05× buffer. Another 10λ dilution was created using 1.0× buffer prior to performing a series of 3× dilutions to create a compound concentration curve using the following assay settings: 20 C analysis temperature, General Settings=10 Hz data collection rate and multi-detection; Assay Steps=all set to LMW kinetics; Cycle Types=LMW kinetics (60 s contact time, 120 s dissociation time, 100 μL/min flow rate, extra wash after injection with 50% DMSO, flow path 1,2,3,4); Flow path detection=2-1, 4-3). Data evaluation was performed using the Biacore T200 Evaluation software and data fit to 1:1 binding model.
Target sequence in this assay (P01116 1-188 isoform P01116-2 G12D): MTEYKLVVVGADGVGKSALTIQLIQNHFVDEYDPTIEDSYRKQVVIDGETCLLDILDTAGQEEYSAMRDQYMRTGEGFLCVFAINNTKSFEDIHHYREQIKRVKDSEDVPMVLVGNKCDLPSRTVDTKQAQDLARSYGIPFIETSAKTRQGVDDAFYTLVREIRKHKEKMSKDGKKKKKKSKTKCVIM

KRas G12D [3] = target: T1, KRas G12D; assay: KRas G12D Binding Assay (TR-FRET displacement of labeled tracer); design: corresponding to amino acids 1:169, produced at Array BioPharma Inc; biotin (biotinylated); settings: TR-FRET displacement of Cy5 labelled tracer, Biotinylated GDP-loaded KRAS G12D (amino acids 1:169), 60 minute incubation at 22° C.
How it was run: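 Biotinylated GDP-loaded KRAS G12D (aa 1:169) was incubated with Cy5 tracer, Eu-streptavidin and compound (2% DMSO) in HEPES pH 7.5, MgCl2, Tween-20, DTT, 60 min at 22° C. TR-FRET ratio gave POC; IC50 from 4-parameter fit at 50 POC.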
Target sequence in this assay (P01116 1-169 isoform P01116-2 G12D): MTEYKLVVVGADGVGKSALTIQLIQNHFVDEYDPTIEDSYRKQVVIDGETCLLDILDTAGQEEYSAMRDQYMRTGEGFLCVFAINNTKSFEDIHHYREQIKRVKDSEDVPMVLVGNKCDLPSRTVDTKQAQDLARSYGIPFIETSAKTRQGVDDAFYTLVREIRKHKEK

[4] = AGS cells expressing G12D, 3 hours, phospho-ERK signal normalized to GAPDH, read-out: IC50

| SMILES | Kd (KRas G12D [2]) | IC50 (KRas G12D [3]) | IC50 ([1]; AGS, 3 h) | IC50 [1, 4] |
| --- | --- | --- | --- | --- |
| CN(C)C1(CNc2nc(OC[C@@]34CCCN3C[C@H](F)C4)nc3c(F)c(-c4cc(O)cc5ccccc45)ncc23)CCC1 [Example 1, 4-(4-(((1-(dimethylamino)cyclobutyl)methyl)amino)-8-fluoro-2-(((2R,7aS)-2-fluorotetrahydro-1H-pyrrolizin-7a(5H)-yl)methoxy)pyrido[4,3-d]pyrimidin-7-yl)naphthalen-2-ol] | 14.7 nM | 19.6 nM | 692 nM |  |
| CC1(CNc2nc(OC[C@@]34CCCN3C[C@H](F)C4)nc3c(F)c(-c4cc(O)cc5ccccc45)ncc23)CNC1 [Example 8, 4-(8-fluoro-2-(((2R,7aS)-2-fluorotetrahydro-1H-pyrrolizin-7a(5H)-yl)methoxy)-4-(((3-methylazetidin-3-yl)methyl)amino)pyrido[4,3-d]pyrimidin-7-yl)naphthalen-2-ol] | 66.8 nM | 39.9 nM |  | > 16700 nM |
| CN(CC1(N(C)C)CCC1)c1nc(OC[C@@]23CCCN2C[C@H](F)C3)nc2c(F)c(-c3cc(O)cc4cccc(Cl)c34)ncc12 [Example 36, 5-chloro-4-(4-(((1-(dimethylamino)cyclobutyl)methyl)(methyl)amino)-8-fluoro-2-(((2R,7aS)-2-fluorotetrahydro-1H-pyrrolizin-7a(5H)-yl)methoxy)pyrido[4,3-d]pyrimidin-7-yl)naphthalen-2-ol dihydrochloride] | 135 nM | 76.5 nM |  | 3290 nM |
| C#Cc1cccc2cc(O)cc(-c3ncc4c(NCC5(N(C)C)CCC5)nc(OC[C@@]56CCCN5C[C@H](F)C6)nc4c3F)c12 [Example 52, 4-(4-(((1-(dimethylamino)cyclobutyl)methyl)amino)-8-fluoro-2-(((2R,7aS)-2-fluorotetrahydro-1H-pyrrolizin-7a(5H)-yl)methoxy)pyrido[4,3-d]pyrimidin-7-yl)-5-ethynylnaphthalen-2-ol] | 0.04 nM | 0.6 nM | 12 nM |  |

More lines, main results first:

| Kd (KRas G12D [2]) | IC50 (KRas G12D [3]) | SMILES | IC50 ([1]; AGS, 3 h) | IC50 [1, 4] |
| --- | --- | --- | --- | --- |
| 12.2 nM | 10 nM | CN(C)C1(CNc2nc(OC[C@@]34CCCN3C[C@H](F)C4)nc3c(F)c(-c4cc(O)cc5ccccc45)ncc23)CCCC1 [Example 7, 4-(4-(((1-(dimethylamino)cyclopentyl)methyl)amino)-8-fluoro-2-(((2R,7aS)-2-fluorotetrahydro-1H-pyrrolizin-7a(5H)-yl)methoxy)pyrido[4,3-d]pyrimidin-7-yl)naphthalen-2-ol bis(2,2,2-trifluoroacetate)] |  | 711 nM |
|  | 89.6 nM | CN(C)C1(CNc2nc(OC[C@]34CCCN3[C@@H](COC(=O)N3CCCCC3)CC4)nc3c(F)c(-c4cccc5cccc(Cl)c45)ncc23)CCC1 [Example 50, ((3R,7aR)-7a-(((7-(8-chloronaphthalen-1-yl)-4-(((1-(dimethylamino)cyclobutyl)methyl)amino)-8-fluoropyrido[4,3-d]pyrimidin-2-yl)oxy)methyl)hexahydro-1H-pyrrolizin-3-yl)methyl piperidine-1-carboxylate] |  | 10700 nM |
|  | 102 nM | CN(C)C(=O)OC[C@H]1CC[C@@]2(COc3nc(NCC4(N(C)C)CCC4)c4cnc(-c5cccc6cccc(Cl)c56)c(F)c4n3)CCCN12 [Example 51, ((3R,7aR)-7a-(((7-(8-chloronaphthalen-1-yl)-4-(((1-(dimethylamino)cyclobutyl)methyl)amino)-8-fluoropyrido[4,3-d]pyrimidin-2-yl)oxy)methyl)hexahydro-1H-pyrrolizin-3-yl)methyl dimethylcarbamate] |  | > 16700 nM |
|  | 79.3 nM | CN(C)C1(CNc2nc(OCC34CCCN3CCC4)nc3c(F)c(-c4cccc5cccc(Cl)c45)ncc23)CCC1 [Example 54, 7-(8-chloronaphthalen-1-yl)-N-((1-(dimethylamino)cyclobutyl)methyl)-8-fluoro-2-((tetrahydro-1H-pyrrolizin-7a(5H)-yl)methoxy)pyrido[4,3-d]pyrimidin-4-amine] |  | > 16700 nM |
|  | 2.6 nM | C#Cc1c(F)ccc2cccc(-c3ncc4c(NCC5(N(C)C)CCC5)nc(OCC56CCCN5CCC6)nc4c3F)c12 [Example 56, N-((1-(dimethylamino)cyclobutyl)methyl)-7-(8-ethynyl-7-fluoronaphthalen-1-yl)-8-fluoro-2-((hexahydro-1H-pyrrolizin-7a-yl)methoxy)pyrido[4,3-d]pyrimidin-4-amine] |  | 350 nM |
